Measured values as given in patent US20240156790A1, “COMPOUNDS, COMPOSITIONS, AND METHODS FOR MODULATING FERROPTOSIS AND TREATING EXCITOTOXIC DISORDERS” (THE TRUSTEES OF COLUMBIA UNIVERSITY IN THE CITY OF NEW YORK, priority 2018, published 2024).
Entries after “also recorded” stand apart in the source; their conditions may differ. Like-named read-outs stand apart in the source and are kept apart here.

Assays:
[1] = system: N27 rat dopaminergic cells; assay: Suppression of ferroptosis induced by RSL3 in N27 cells (CellTiter-Glo viability); format: cell-based; settings: for IC50: Rattus norvegicus, read-out: IC50; for ability to suppress ferroptosis, in words: RSL3 20 nM, 24 hours of incubation
HT-1080 cells = assay: Rescue activity of Fer-1 analogs: inhibition of erastin-, IKE- or RSL3-induced death (Alamar Blue viability); format: cell-based; settings: Homo sapiens
Experimental: HT-1080 cells are cultured in DMEM containing 10% fetal bovine serum, 1% supplemented non-essential amino acids and 1% pen/strep mixture (Gibco) and maintained in a humidified environment at 37° C. with 5% CO2 in a tissue culture incubator. 1,000 HT-1080 cells are seeded per well in duplicate 384-well plates (Corning) using a BioMek FX liquid handling robot (Beckman Coulter). The next day, the medium is replaced with 36 μL of medium containing 10 μM erastin with 4 μL of medium containing a dilution series (previously prepared) of DMSO, Fer-1 (positive control) or Fer-1 analogs. […] Cells are incubated a further 6 hours and then the Alamar Blue fluorescence intensity recorded using a Victor 3 platereader (PerkinElmer)(ex/em 530/590). All experiments are performed at least twice and the background (no cells)-subtracted Alamar Blue values for each combination are averaged between replicates. The same procedure was repeated by replacing erastin (10 μM) with IKE (3 μM) or RSL3 (0.2 μM).

[2] = N27, 24 h, Table 3, ^d 24 hr treatment, 1,000 cells/well seeded
[3] = N27, 24 h, Table 13, 20 nM RSL3, treated for 24 hours^d
[4] = HT-1080, ^a 50% viability, HT-1080 cells treated with 10 μM erastin
[5] = HT-1080, ^b 50% viability, HT-1080 treated with 3 μM IKE
[6] = HT-1080, ^c 50% viability, HT-1080 treated with 0.2 μM RSL3
[7] = N27, 48 h, Table 13, 20 nM RSL3, treated for 48 hours^e

SMILES | IC50 [1, 3] [nM] | EC50 (HT-1080 cells; [4]) [nM] | EC50 (HT-1080 cells; [5]) [nM] | EC50 (HT-1080 cells; [6]) [nM] | further results
Cc1noc(-c2cnc(NC3CCCC3)c(NC3CCCCC3)c2)n1 [TH-4-66, N^3-cyclohexyl-N^2-cyclopentyl-5-(3-methyl-1,2,4-oxadiazol-5-yl)pyridine-2,3-diamine] | 3.1 | – | – | – | potency relative to fer-1, in words ([1]; 20 nM RSL3): more potent than fer-1; IC50 [1, 2]: 3.1 nM
Cc1noc(-c2ccc(NC3CCCCC3)c(NC3CCCC3)c2)n1 [TH-1-45-1, N1-cyclohexyl-N2-cyclopentyl-4-(3-methyl-1,2,4-oxadiazol-5-yl)benzene-1,2-diamine] | – | 33.8 | 17.3 | 5.1 | –
Cc1noc(-c2ccc(NC3CCCCC3)c(NC(C)C)c2)n1 [TH-1-45-2, N1-cyclohexyl-N2-isopropyl-4-(3-methyl-1,2,4-oxadiazol-5-yl)benzene-1,2-diamine] | – | 22.3 | 16.2 | 4.2 | –
C=C/C(=C\C(F)=C\COC(C)(C)C)NC12CC3CC(CC(C3)C1)C2 [CFI-A78] | – | – | 26 | 18 | –
CCC(CC)Nc1cc(-c2nc(C)no2)cnc1NC1CCCC1 [TH-4-68, N^2-cyclopentyl-5-(3-methyl-1,2,4-oxadiazol-5-yl)-N^3-(pentan-3-yl)pyridine-2,3-diamine] | 4 | – | – | – | IC50 [1, 2]: 4 nM
Cc1noc(-c2ccc(NC3CCCCC3)c(NCc3ccncc3)c2)n1 [TH-1-53-3, N1-cyclohexyl-4-(3-methyl-1,2,4-oxadiazol-5-yl)-N2-(pyridin-4-ylmethyl)benzene-1,2-diamine] | – | 63.8 | 63 | 31.5 | –
CCOC(=O)c1cnc(NC2CCCCC2)c(NCc2ccccc2)c1 [YZ1109, ethyl 5-(benzylamino)-6-(cyclohexylamino)nicotinate] | – | 317 | 166 | 115 | –
Cc1noc(-c2cnc(NC3CCCC3)c([N+](=O)[O-])c2)n1 [TH-4-58-2, N-cyclopentyl-5-(3-methyl-1,2,4-oxadiazol-5-yl)-3-nitropyridin-2-amine] | – | – | – | – | ability to suppress ferroptosis, in words [1]: unable to suppress ferroptosis
Cc1noc(-c2cnc(NC3CCCC3)c(NC3CCC3)c2)n1 [TH-4-62, N^3-cyclobutyl-N^2-cyclopentyl-5-(3-methyl-1,2,4-oxadiazol-5-yl)pyridine-2,3-diamine] | 6.9 | – | – | – | IC50 [1, 2]: 6.9 nM
Cc1noc(-c2cnc(NC3CCCCC3)c(NC3CCCC3)c2)n1 [TH-4-16-1, N^2-cyclohexyl-N^3-cyclopentyl-5-(3-methyl-1,2,4-oxadiazol-5-yl)pyridine-2,3-diamine] | 5.1 | – | – | – | IC50 [1, 2]: 5.1 nM; IC50 ([1]; N27, 48 h, Table 3, ^e 48 hr treatment, 1,000 cells/well seeded): 8.2 nM; IC50 [1, 7]: 8.2 nM
CC(C)(C)OC(=O)c1cnc(NC23CC4CC(CC(C4)C2)C3)c(NC2CCCCC2)c1 [YZ1118, tert-butyl 6-(((3s,5s,7s)-adamantan-1-yl)amino)-5-(cyclohexylamino)nicotinate] | – | – | 40.1 | 37.3 | –
CC(C)(C)OC(=O)c1cnc(NC23CC4CC(CC(C4)C2)C3)c(N)c1 [YZ1117, tert-butyl 6-(((3s,5s,7s)-adamantan-1-yl)amino)-5-aminonicotinate] | – | 85 | 68.4 | 39.1 | –
COc1ccc(NC2CCCCC2)c(NC(C)C)n1 [TH-3-95-1-r1, N3-cyclohexyl-N2-isopropyl-6-methoxypyridine-2,3-diamine] | 30.5 | – | – | – | IC50 [1, 7]: 22.4 nM
Cc1noc(-c2ccc(NC3CCCCC3)c(NCc3ccccc3)c2)n1 [TH-1-53-2] | – | 44.5 | 40.2 | 9.4 | –
Cc1noc(-c2cnc(NC3CCCCC3)c(NC3CCC3)c2)n1 [TH-4-55-1, N^3-cyclobutyl-N^2-cyclohexyl-5-(3-methyl-1,2,4-oxadiazol-5-yl)pyridine-2,3-diamine] | 2.2 | – | – | – | potency relative to fer-1, in words ([1]; 20 nM RSL3): more potent than fer-1; IC50 [1, 2]: 2.2 nM
Cc1noc(-c2cnc(NC3CCCCC3)c([N+](=O)[O-])c2)n1 [TH-4-50-2, N-cyclohexyl-5-(3-methyl-1,2,4-oxadiazol-5-yl)-3-nitropyridin-2-amine] | – | – | – | – | ability to suppress ferroptosis, in words [1]: unable to suppress ferroptosis
COc1ccc(NC(C)C)c(NC(C)C)n1 [TH-3-95-2-R1, N2,N3-diisopropyl-6-methoxypyridine-2,3-diamine] | 35.7 | – | – | – | IC50 [1, 7]: 0.22 nM
Cc1noc(-c2cc(NC3CCCC3)cnc2NC2CCCCC2)n1 [TH-4-53-2, N^2-cyclohexyl-N^5-cyclopentyl-3-(3-methyl-1,2,4-oxadiazol-5-yl)pyridine-2,5-diamine] | 1.8 | – | – | – | potency relative to fer-1, in words ([1]; 20 nM RSL3): more potent than fer-1; also recorded: the most potent of the analogs tested
CC(C)(C)OC(=O)c1cnc(NC2CCCCC2)c(N)c1 [YZ1113, tert-butyl 5-amino-6-(cyclohexylamino)nicotinate] | – | 338 | 312 | 156 | –
CCOC(=O)c1cnc(NC2CCCCC2)c(N)c1 [YZ1108, ethyl 5-amino-6-(cyclohexylamino)nicotinate] | – | 315 | 639 | 1040 | –
CC(C)(C)OC(=O)c1cnc(NC2CCCCC2)c(NC2CCCCC2)c1 [CFI-101] | – | 354 | 171 | 163 | –
COc1ccc(N)c(NC(C)C)n1 [TH-3-83-2, N2-isopropyl-6-methoxypyridine-2,3-diamine] | 19.5 | – | – | – | IC50 [1, 7]: 33.6 nM
CCC(CC)Nc1cc(-c2nc(C)no2)ccc1NC1CCCCC1 [TH-1-45-3, N1-cyclohexyl-4-(3-methyl-1,2,4-oxadiazol-5-yl)-N2-(pentan-3-yl)benzene-1,2-diamine] | – | 37.8 | 26.9 | 6.6 | –
CCN(CC)c1ncc(-c2nc(C)no2)cc1[N+](=O)[O-] [TH-4-46-2, N,N-diethyl-5-(3-methyl-1,2,4-oxadiazol-5-yl)-3-nitropyridin-2-amine] | – | – | – | – | ability to suppress ferroptosis, in words [1]: unable to suppress ferroptosis
Cc1noc(-c2cc(N(C(C)C)C(C)C)cnc2NC2CCCCC2)n1 [TH-3-86-R2, N^2-cyclohexyl-N^5,N^5-diisopropyl-3-(3-methyl-1,2,4-oxadiazol-5-yl)pyridine-2,5-diamine] | – | – | – | – | IC50 [1, 7]: 1040 nM; IC50 ([1]; N27, text, 20 nM RSL3): 1000 nM
CCC(CC)Nc1cnc(NC2CCCCC2)c(-c2nc(C)no2)c1 [TH-4-53-1, N^2-cyclohexyl-3-(3-methyl-1,2,4-oxadiazol-5-yl)-N^5-(pentan-3-yl)pyridine-2,5-diamine] | 32.7 | – | – | – | –
